From ChEMBL document CHEMBL1201862, “PubChem BioAssay data set” (2004)
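Growth conditions: 96-well plates. Treatment: test compound, 48 hours, 5 concentrations. Analysis: linear interpolation between bracketing concentrations; unreached endpoints set to highest concentration. GI50: concentration for 50% inhibition of growth.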 Active and inactive are the calls of the source. Cut-off read from the data, not from the text of the source: active = GI50 up to about 1.1 µM and inactive = higher.

How the values were obtained:
Assay in all cases: NCI tumour cell line growth inhibition, 48 h
A549 = system: A549
CAKI-1 = system: CAKI-1
CCRF-CEM = system: CCRF-CEM
EKVX = system: EKVX
HOP-92 = system: HOP-92
IGROV-1 = system: IGROV-1
KM12 = system: KM12
RPMI-8226 = system: RPMI-8226
RXF 393 = system: RXF 393
SF-268 = system: SF-268
SF-539 = system: SF-539
SN12C = system: SN12C
SR = system: SR
U-251 = system: U-251
UACC-62 = system: UACC-62
SK-OV-3 = system: SK-OV-3

Measured: GI50

[N-]=[N+]=Nc1ccc(S(=O)(=O)Oc2cc(OS(=O)(=O)c3ccc(N=[N+]=[N-])cc3)cc(OS(=O)(=O)c3ccc(N=[N+]=[N-])cc3)c2)cc1
inactive: A549 > 100 µM | CAKI-1 > 10 µM | CCRF-CEM > 100 µM | EKVX > 100 µM | HOP-92 > 100 µM | IGROV-1 > 100 µM | KM12 > 100 µM | RPMI-8226 > 100 µM | RXF 393 > 100 µM | SF-268 > 100 µM | SF-539 > 100 µM | SN12C > 10 µM | SR > 100 µM | U-251 > 100 µM | UACC-62 > 100 µM

C[C@]12CCC(=O)C=C1CC[C@@H]1C2CC[C@]2(C)Nc3c(cnn3-c3ccccc3)CC12 (some centres undefined)
inactive: A549 > 100 µM | CAKI-1 > 100 µM | CCRF-CEM > 100 µM | EKVX > 100 µM | IGROV-1 > 100 µM | KM12 > 10 µM | RPMI-8226 > 100 µM | RXF 393 > 100 µM | SF-539 > 100 µM | SK-OV-3 > 100 µM | U-251 > 100 µM | UACC-62 > 100 µM

C=C1CC2(CCS(=O)(=O)c3ccccc32)OC1=O (centres undefined)
inactive: A549 17.9 µM | CAKI-1 1.48 µM | CCRF-CEM 2.24 µM | EKVX 18 µM | HOP-92 3.72 µM | IGROV-1 16.6 µM | KM12 16 µM | RPMI-8226 2.74 µM | SF-268 17.2 µM | SF-539 5.6 µM | SK-OV-3 17.6 µM | U-251 13.2 µM | UACC-62 15.9 µM

CCC1CN2CCc3cc(OC)c(OC)cc3C2CC1CC1c2cc(OC)c(OC)cc2CCN1C(=O)C1CCCN1 (centres undefined)
inactive: A549 26.4 µM | CAKI-1 6.44 µM | CCRF-CEM 26.1 µM | EKVX 36.6 µM | HOP-92 28.7 µM | IGROV-1 28.4 µM | KM12 35.2 µM | RPMI-8226 50.5 µM | RXF 393 33.5 µM | SF-268 32.8 µM | SF-539 20.3 µM | SK-OV-3 29.4 µM | SN12C 37.5 µM | SR 19.1 µM | U-251 23.9 µM

CCOc1ccc(NC(=O)CC2C(=O)Nc3ccccc3S2(=O)=O)cc1 (centres undefined)
inactive: A549 > 100 µM | EKVX > 100 µM | HOP-92 13.3 µM | IGROV-1 > 100 µM | KM12 > 100 µM | RPMI-8226 > 100 µM | RXF 393 64.1 µM | SF-268 42.7 µM | SF-539 55.1 µM | SN12C 53.1 µM | SR > 100 µM | U-251 33.2 µM

Cc1nsc2cc(Cl)n(C)c(=O)c12
inactive: A549 > 100 µM | CAKI-1 40.4 µM | CCRF-CEM > 100 µM | EKVX 50.4 µM | HOP-92 59.7 µM | IGROV-1 > 100 µM | KM12 > 100 µM | RPMI-8226 > 100 µM | RXF 393 > 100 µM | SF-268 > 100 µM | SF-539 > 100 µM | SK-OV-3 > 100 µM | SN12C > 100 µM | SR > 100 µM | U-251 > 100 µM

COc1c(C)c(O)c2c(c1C)OC(c1ccccc1)CC2=O (centres undefined)
inactive: A549 52.5 µM | CAKI-1 41.2 µM | CCRF-CEM 31.4 µM | EKVX 65.2 µM | HOP-92 29.6 µM | IGROV-1 98.9 µM | KM12 52.6 µM | RPMI-8226 36.1 µM | SF-268 56.9 µM | SF-539 84.5 µM | SK-OV-3 > 100 µM | SN12C 52.5 µM | SR 23.5 µM | U-251 67.9 µM | UACC-62 53 µM

O=C1c2cccc3cccc(c23)C(=O)N1CCCN1CCN(CCCN2C(=O)c3cccc4cccc(c34)C2=O)CC1
inactive: A549 > 100 µM | CAKI-1 > 100 µM | CCRF-CEM 32.8 µM | EKVX > 100 µM | HOP-92 > 100 µM | IGROV-1 > 100 µM | KM12 > 100 µM | RPMI-8226 > 100 µM | RXF 393 > 100 µM | SF-539 > 100 µM | SK-OV-3 > 100 µM | SN12C > 100 µM | U-251 > 100 µM | UACC-62 > 100 µM

COc1nc(C(=O)O)c(Cl)c(OC)c1Cl
inactive: A549 > 100 µM | CAKI-1 > 100 µM | CCRF-CEM > 100 µM | EKVX > 100 µM | HOP-92 > 100 µM | IGROV-1 > 100 µM | KM12 > 100 µM | RPMI-8226 > 100 µM | RXF 393 > 100 µM | SF-268 > 100 µM | SF-539 > 100 µM | SK-OV-3 > 100 µM | SN12C > 100 µM | SR > 100 µM | UACC-62 > 100 µM

COCCOc1cc(C)cc(/C=C(C)/C=C/C2=C(C)CCCC2(C)C)n1
inactive: A549 51.9 µM | CAKI-1 > 100 µM | EKVX 38.2 µM | HOP-92 38.6 µM | IGROV-1 > 100 µM | KM12 70.6 µM | RPMI-8226 14.8 µM | RXF 393 39.7 µM | SF-268 > 100 µM | SF-539 > 100 µM | SK-OV-3 > 100 µM | SN12C > 100 µM | SR 16.5 µM | U-251 62.4 µM | UACC-62 > 100 µM

O=C(Nc1ccccc1[N+](=O)[O-])c1ccccc1
inactive: A549 > 100 µM | CAKI-1 > 100 µM | EKVX 97.7 µM | HOP-92 65.9 µM | IGROV-1 > 100 µM | KM12 55.5 µM | RPMI-8226 80.9 µM | RXF 393 37.3 µM | SF-268 > 100 µM | SF-539 > 100 µM | SK-OV-3 > 100 µM | SN12C > 100 µM | U-251 > 100 µM | UACC-62 > 100 µM

COc1ccc(C)cc1-c1ccc(-c2cc(C)ccc2OC)o1
inactive: A549 > 100 µM | CAKI-1 > 100 µM | CCRF-CEM 68.4 µM | EKVX > 100 µM | HOP-92 54.6 µM | IGROV-1 > 100 µM | KM12 > 100 µM | RPMI-8226 > 100 µM | SF-268 > 100 µM | SF-539 > 100 µM | SK-OV-3 > 100 µM | SN12C > 100 µM | U-251 > 100 µM | UACC-62 > 100 µM

CCOC(=O)C(=O)Nc1ccccc1OCC
inactive: A549 > 100 µM | CAKI-1 > 100 µM | CCRF-CEM > 100 µM | EKVX > 100 µM | HOP-92 > 100 µM | IGROV-1 > 100 µM | KM12 > 100 µM | RPMI-8226 > 100 µM | RXF 393 > 100 µM | SF-268 > 100 µM | SF-539 > 100 µM | SK-OV-3 > 100 µM | SN12C > 100 µM | U-251 > 100 µM | UACC-62 > 100 µM

CC(=O)NC1=C(NCCO)C(=O)c2ccccc2C1=O
inactive: A549 > 50 µM | CCRF-CEM 42.6 µM | EKVX > 50 µM | IGROV-1 > 50 µM | KM12 > 50 µM | RXF 393 > 50 µM | SF-268 > 50 µM | SF-539 > 50 µM | SK-OV-3 > 50 µM | SN12C > 50 µM | SR > 50 µM | U-251 > 50 µM | UACC-62 > 50 µM

CN1N=CSC12C(=O)N(c1ccccc1)C(=O)N2c1ccccc1 (centres undefined)
inactive: A549 > 100 µM | CAKI-1 > 100 µM | CCRF-CEM > 100 µM | EKVX > 100 µM | IGROV-1 > 100 µM | KM12 > 100 µM | RPMI-8226 > 100 µM | RXF 393 > 100 µM | SF-268 > 100 µM | SF-539 > 100 µM | SK-OV-3 > 100 µM | SN12C > 100 µM | U-251 > 100 µM | UACC-62 > 100 µM

CC1SC2=NC3=C(c4ccccc4C3=O)C(c3ccc(Cl)cc3)N2C1=O (centres undefined)
inactive: A549 > 100 µM | CAKI-1 > 100 µM | CCRF-CEM > 100 µM | EKVX > 100 µM | HOP-92 22.3 µM | IGROV-1 > 100 µM | KM12 > 100 µM | RPMI-8226 64 µM | SF-268 > 100 µM | SK-OV-3 > 100 µM | SN12C 95.5 µM | U-251 > 100 µM | UACC-62 > 100 µM

CC(=O)OCC1OC(n2ccc(=O)[nH]c2=O)C(OC(C)=O)C(OC(C)=O)C1OC(C)=O (centres undefined)
inactive: A549 > 100 µM | CAKI-1 > 100 µM | CCRF-CEM > 100 µM | EKVX > 100 µM | HOP-92 > 100 µM | IGROV-1 > 100 µM | KM12 > 100 µM | RPMI-8226 > 100 µM | RXF 393 > 100 µM | SF-268 > 100 µM | SK-OV-3 > 100 µM | SN12C > 100 µM | SR > 100 µM | U-251 > 100 µM | UACC-62 > 100 µM

COc1ccc(/C=C/C(=O)c2sc(NC(=S)NC(=O)c3ccccc3F)nc2C)cc1OC
inactive: A549 > 100 µM | CAKI-1 > 100 µM | CCRF-CEM 35.6 µM | EKVX > 100 µM | HOP-92 98.9 µM | IGROV-1 > 100 µM | KM12 > 100 µM | RPMI-8226 36.2 µM | RXF 393 36.5 µM | SF-268 > 100 µM | SF-539 > 100 µM | SK-OV-3 > 100 µM | SN12C > 100 µM | U-251 > 100 µM | UACC-62 85.9 µM

COC(=O)[C@@]12C3=NO[C@]1(C(=O)OC)C(O[Si](C)(C)C(C)(C)C)[C@@H](OC(C)=O)[C@@H](OC(C)=O)[C@@H]2[C@@H](OCc1ccccc1)CC3 (some centres undefined)
inactive: A549 28.3 µM | CAKI-1 3.8 µM | CCRF-CEM 5.45 µM | EKVX > 27.7 µM | HOP-92 2.22 µM | IGROV-1 > 29 µM | KM12 > 100 µM | RPMI-8226 4.42 µM | RXF 393 3.06 µM | SF-268 5.79 µM | SF-539 > 100 µM | SK-OV-3 > 100 µM | SN12C > 100 µM | U-251 8.99 µM | UACC-62 > 43.6 µM
